“Also recorded” adds a separate entry of the source. Non-standard residues stand in square brackets, D forms with d. Residues, ends and D or L forms follow the SMILES beside them. Nle = CCCC[C@H](N)C(=O)O
Assays:
Akt1:Pdk1 = Akt1:Pdk1 PCA; details: for Akt:Pdk1 complexes: 90 and 480 minutes after treatment
Description: (§4) For example, we monitored drug activity on growth factor-mediated signal transduction pathways involving protein kinase B (Akt) by assessing the complex between Akt1 and phosphatidylinositol-3-dependent kinase (Pdk1). We also monitored complexes containing Akt1 and the cyclin-dependent kinase inhibitor, p27 (CDKN1B; kip1), which reports on cell cycle regulatory processes.
Akt1:p27 = Akt1:p27 PCA; details: for Akt:p27 complexes: 90 and 480 minutes after treatment
Description: as §4
cyclinD1:Cdk4 = test: CyclinD1:Cdk4 PCA; type: cell-based, human; details: eight hours of treatment
H-Ras:Raf-1 = H-Ras:Raf-1 PCA; type: cell-based, human; details: drug treatment, HEK293
beta-Arr2:beta2AR = beta-Arr2:beta2AR (Homo sapiens, UniProt P07550); test: beta-Arr2:beta2AR PCA (with or without ISO); type: cell-based
Pin1:Jun = Pin1:Jun PCA; type: cell-based, human; details: for effect on Pin1:Jun assay: statins, FIG. 19B
PPAR-gamma:SRC-1 = molecular target: T1, PPAR-gamma:SRC-1 (Homo sapiens, UniProt P37231); test: PPAR-gamma:SRC-1 PCA; type: cell-based; details: serum-starved HEK293; for effect on PPAR-gamma:SRC-1 PCA: drug 6.5 hours prior to rosiglitazone 1.5 hours, FIG. 24B, C
T1 sequence (P37231 1-477 isoform P37231-2): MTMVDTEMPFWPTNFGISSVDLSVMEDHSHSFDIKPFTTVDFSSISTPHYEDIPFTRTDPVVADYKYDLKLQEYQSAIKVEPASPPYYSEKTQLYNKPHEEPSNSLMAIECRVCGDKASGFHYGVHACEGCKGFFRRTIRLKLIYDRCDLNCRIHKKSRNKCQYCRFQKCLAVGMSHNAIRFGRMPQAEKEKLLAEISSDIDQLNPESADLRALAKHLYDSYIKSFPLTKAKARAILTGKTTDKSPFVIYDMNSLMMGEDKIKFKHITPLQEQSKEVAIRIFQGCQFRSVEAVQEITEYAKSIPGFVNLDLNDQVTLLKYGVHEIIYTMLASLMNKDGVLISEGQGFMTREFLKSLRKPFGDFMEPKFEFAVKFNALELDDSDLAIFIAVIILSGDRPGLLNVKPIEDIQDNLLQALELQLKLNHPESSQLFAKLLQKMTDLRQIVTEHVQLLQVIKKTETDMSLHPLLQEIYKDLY

phospho-Hsp27 = phospho-Hsp27 immunofluorescence, high-content imaging in HEK293 cells; type: cell-based, human; details: for EGF-induced Hsp27 phosphorylation: drug 90 min, hEGF during last 5 min
Protocol: (§1) We assessed the effects of the above-mentioned compounds on the three pathways and used the results to construct pharmacological profiles for the agents. Human cells (HEK293) were treated with drugs and the phosphorylation status of the three downstream proteins was assessed in the absence or presence of epidermal growth factor (EGF). Cells were then fixed and probed with antisera generated against the phosphorylated forms of CREB (S133), ERK1/2 (phospho T*EY*), or phospho Hsp27 (S78/S82). The ERK1/2 antibodies specifically recognize the MAPK/ERK1 and MAPK/ERK2 protein kinases only when they are phosphorylated on Threonine 202 and Tyrosine 204 in the activation loop. […] Changes in the level and sub-cellular localization of a phosphorylated protein following treatment with a drug would indicate a functional connection between the drug and the pathway of interest.
(§2) Details of the methods used are as follows. HEK293T cells were seeded in black-walled, poly-lysine coated 96-well plates (Greiner) at a density of 30,000/well. After 24 hours, cells in duplicate wells were treated with combinations of different drugs and stimulus as follows: (a) 20 micromolar PD98059, micromolar SB203580, or vehicle alone for 90 minutes; and (b) as for (a), but with 100 ng/ml hEGF added to the cells during the last 5 min of drug treatment. The drugs were purchased from Calbiochem and hEGF was from Roche. Four sets of cells treated as described were prepared. The cells were rinsed once with PBS and fixed with 4% formaldehyde for 10 min. The cells were subsequently permeabilized with 0.25% Triton X-100 in PBS and incubated with 3% BSA for 30 min to block non-specific antibody binding. […]
(§3) Images were acquired using a Discovery-1 High Content Imaging System (Molecular Devices). Background fluorescence due to nonspecific binding by the secondary antibody was established with the use of cells that were incubated with BSA/PBS and without primary antibodies. […]

phospho-CREB = phospho-CREB (Ser133) immunofluorescence, high-content imaging in HEK293 cells; type: cell-based, human
Protocol: as §1
Details of the methods used are as follows. HEK293T cells were seeded in black-walled, poly-lysine coated 96-well plates (Greiner) at a density of 30,000/well. […]
as §3

phospho-ERK = phospho-ERK (T202/Y204) immunofluorescence, high-content imaging in HEK293 cells; type: cell-based, human; details: for EGF-stimulated ERK phosphorylation: drug 90 min, hEGF during last 5 min
Protocol: as §1, §2, §3

CDKN1A(p21):Cdc2 = test: Cdc2:p21 PCA; details: statins
ELK: MAPK1 = test: Elk1:Mapk1 PCA; details: 480 minutes; FIG. 17 bar 20
MAPK1:MKNK1 = test: Mknk1:Mapk1 PCA; details: 480 minutes; bar 27
Cofilin:Limk2 = Cofilin:Limk2 PCA; details: drug treatment, HEK293

C=CCNC1=C2C[C@@H](C)C[C@H](OC)[C@H](O)[C@@H](C)/C=C(\C)[C@H](OC(N)=O)[C@@H](OC)/C=C\C=C(/C)C(=O)NC(=CC1=O)C2=O [17-AAG, 17-(allylamino)-17-demethoxygeldanamycin]
Akt:Pdk1 complexes (Akt1:Pdk1): negatively regulated | Akt:p27 complexes (Akt1:p27): negatively regulated

CCCC[C@@H](C=O)NC(=O)[C@H](CC(C)C)NC(=O)[C@H](CC(C)C)NC(C)=O [ALLN] (Ac-Leu-Leu-[Nle]-aldehyde)
cyclinD1:Cdk4 complexes (cyclinD1:Cdk4): accumulation of this complex in the nucleus

Cc1ccc(S(=O)(=O)/C=C/C#N)cc1 [BAY 11-7082]
total Akt:Pdk1 complexes (Akt1:Pdk1; HEK293): not | HRas:Raf1 complex (H-Ras:Raf-1): inhibited | nuclear Akt:p27 complexes (Akt1:p27; HEK293): strongly inhibited

CC(C)C[C@H](NC(=O)c1ccc(NCc2cnc[nH]2)cc1-c1cccc2ccccc12)C(=O)O [GGTI-2133]
effect on βArr2:β2AR assay following isoproterenol stimulation (beta-Arr2:beta2AR; FIG. 19A, 2 μM ISO 30 min): no effect

CN(CCOc1ccc(C[C@H](Nc2ccccc2C(=O)c2ccccc2)C(=O)O)cc1)c1ccccn1 [GW1929]
effect on Pin1/Jun PCA (Pin1:Jun; PPARγ ligands, 480 minutes, FIG. 18): strong stimulation; also recorded: had an effect

COc1cccc(-c2cc(=O)c3ccccc3o2)c1N [PD98059]
effect on PPAR-gamma:SRC-1 PCA (PPAR-gamma:SRC-1): no appreciable effects | EGF-induced Hsp27 phosphorylation (phospho-Hsp27): no effect | effect of EGF on phospho-CREB in presence of drug (phospho-CREB; 20 micromolar PD98059 90 min, hEGF during last 5 min): reduced | EGF-stimulated ERK phosphorylation (phospho-ERK): significantly blocked

COc1cc2ncnc(Nc3cccc(Br)c3)c2cc1OC [PD 153035]
effect on PPAR-gamma:SRC-1 PCA (PPAR-gamma:SRC-1): no appreciable effects

CC(C)(C)n1nc(-c2ccc(Cl)cc2)c2c(N)ncnc21 [PP2]
increase of PPAR-gamma:SRC-1 complex (PPAR-gamma:SRC-1; drug 10 micromolar 6.5 hours prior to rosiglitazone 1.5 hours, p<0.0001 vs DMSO): 5 fold | effect on PPAR-gamma:SRC-1 PCA (PPAR-gamma:SRC-1): comparable to c-src siRNA

Nc1ncnc2c1cnn2-c1ccccc1 [PP3]
effect on PPAR-gamma:SRC-1 PCA (PPAR-gamma:SRC-1): did not mimic

C[S+]([O-])c1ccc(-c2nc(-c3ccc(F)cc3)c(-c3ccncc3)[nH]2)cc1 (stereo not drawn) [SB203580, 4-(4-fluorophenyl)-2-(4-methylsulfinylphenyl)-5-(4-pyridyl)1H-imidazole]
EGF-induced Hsp27 phosphorylation (phospho-Hsp27): blocked | EGF-stimulated ERK phosphorylation (phospho-ERK): no effect

CC(C)n1c(/C=C/C(O)CC(O)CC(=O)O)c(-c2ccc(F)cc2)c2ccccc21 (stereo not drawn) [fluvastatin]
effect on Pin1:Jun assay (Pin1:Jun): pronounced inhibitory activity; also recorded: inhibited

CC(C)c1nc(N(C)S(C)(=O)=O)nc(-c2ccc(F)cc2)c1/C=C/[C@@H](O)C[C@@H](O)CC(=O)O [rosuvastatin]
effect on Pin1:Jun assay (Pin1:Jun): little activity | activity on CDKN1A(p21):Cdc2 assay (CDKN1A(p21):Cdc2): activity opposite from the other statins

EGF: epidermal growth factor; hEGF from Roche
phospho-Hsp27 (phospho-Hsp27; 100 ng/ml hEGF, 5 min): increased | formation of phospho-CREB (phospho-CREB; 100 ng/ml hEGF, 5 min): induced | ERK/MAP kinase phosphorylation (phospho-ERK; 100 ng/ml hEGF, 5 min): highly induced

TRAIL: protein cytokine, a TNF-alpha-family ligand
activity on adrenergic GPCR assays (beta-Arr2:beta2AR; 480 minutes, FIG. 17 bars 3 & 4): no activity | ELK: MAPK1 assay (ELK: MAPK1): strongly induced | MAPK1:MKNK1 assay (MAPK1:MKNK1): strongly induced

indirubin-3′-monoxime
Limk2:cofilin complexes (Cofilin:Limk2): almost completely eliminated | Akt:Pdk1 complexes (Akt1:Pdk1): negatively regulated | Akt:p27 complexes (Akt1:p27): negatively regulated
